Reference: the kinase profiling compilation of Christmann-Franck et al. (2016)

biological target: MERTK (human) (UniProt Q12866); test: KINOMEscan competition binding; conditions: compound 10.0 µM
Sequence (Q12866 whole entry, looked up): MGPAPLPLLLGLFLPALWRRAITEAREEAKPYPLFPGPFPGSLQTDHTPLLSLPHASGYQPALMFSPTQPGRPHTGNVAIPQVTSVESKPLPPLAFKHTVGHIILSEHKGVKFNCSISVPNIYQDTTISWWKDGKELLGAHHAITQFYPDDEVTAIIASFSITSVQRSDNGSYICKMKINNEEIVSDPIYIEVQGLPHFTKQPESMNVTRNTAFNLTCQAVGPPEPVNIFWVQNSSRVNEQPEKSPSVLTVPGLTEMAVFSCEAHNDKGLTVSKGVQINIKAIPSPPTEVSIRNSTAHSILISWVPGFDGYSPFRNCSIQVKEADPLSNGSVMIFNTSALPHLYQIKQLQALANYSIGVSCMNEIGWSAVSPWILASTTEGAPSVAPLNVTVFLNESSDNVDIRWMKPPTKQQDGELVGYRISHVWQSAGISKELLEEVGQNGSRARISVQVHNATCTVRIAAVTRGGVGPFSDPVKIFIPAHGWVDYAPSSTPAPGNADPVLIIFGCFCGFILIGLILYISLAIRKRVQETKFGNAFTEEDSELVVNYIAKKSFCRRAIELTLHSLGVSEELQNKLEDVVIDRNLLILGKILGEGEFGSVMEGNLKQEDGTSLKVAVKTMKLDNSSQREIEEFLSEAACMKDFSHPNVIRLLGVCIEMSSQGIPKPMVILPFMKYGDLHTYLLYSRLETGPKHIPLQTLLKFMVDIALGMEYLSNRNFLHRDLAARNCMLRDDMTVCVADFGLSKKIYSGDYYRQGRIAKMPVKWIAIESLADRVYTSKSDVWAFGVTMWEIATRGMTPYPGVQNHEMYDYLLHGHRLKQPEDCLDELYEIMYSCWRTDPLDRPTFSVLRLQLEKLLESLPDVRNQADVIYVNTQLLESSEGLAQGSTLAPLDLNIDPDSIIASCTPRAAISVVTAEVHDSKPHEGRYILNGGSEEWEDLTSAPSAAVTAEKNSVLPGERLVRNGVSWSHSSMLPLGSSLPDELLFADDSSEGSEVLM

SMILES | kinase still bound, per cent of control
CCN1CCN(Cc2ccc(NC(=O)c3ccc(C)c(/C=C/c4cnc(Nc5cc(N6CCNCC6)nc(C)n5)cn4)c3)cc2C(F)(F)F)CC1 | 31%
COc1cc(N2CCC(N3CCN(C)CC3)CC2)ccc1Nc1ncc(Cl)c(Nc2ccccc2S(=O)(=O)C(C)C)n1 | 0%
CCOc1cc(N2CCC(N3CCCCC3)CC2)ccc1Nc1nc(Nc2ccccc2S(=O)(=O)C(C)C)c2cn[nH]c2n1 | 100%

biological target: PIM1 (human) (UniProt P11309); test: KINOMEscan competition binding; conditions: compound 10.0 µM

SMILES | kinase still bound, per cent of control
CCN1CCN(Cc2ccc(NC(=O)c3ccc(C)c(/C=C/c4cnc(Nc5cc(N6CCNCC6)nc(C)n5)cn4)c3)cc2C(F)(F)F)CC1 | 76%
COc1cc(N2CCC(N3CCN(C)CC3)CC2)ccc1Nc1ncc(Cl)c(Nc2ccccc2S(=O)(=O)C(C)C)n1 | 40%
CCOc1cc(N2CCC(N3CCCCC3)CC2)ccc1Nc1nc(Nc2ccccc2S(=O)(=O)C(C)C)c2cn[nH]c2n1 | 100%

biological target: MKNK1 (human) (UniProt Q9BUB5); test: KINOMEscan competition binding; conditions: compound 10.0 µM

SMILES | kinase still bound, per cent of control
CCN1CCN(Cc2ccc(NC(=O)c3ccc(C)c(/C=C/c4cnc(Nc5cc(N6CCNCC6)nc(C)n5)cn4)c3)cc2C(F)(F)F)CC1 | 89%
COc1cc(N2CCC(N3CCN(C)CC3)CC2)ccc1Nc1ncc(Cl)c(Nc2ccccc2S(=O)(=O)C(C)C)n1 | 40%
CCOc1cc(N2CCC(N3CCCCC3)CC2)ccc1Nc1nc(Nc2ccccc2S(=O)(=O)C(C)C)c2cn[nH]c2n1 | 53%

biological target: STK35 (human) (UniProt Q8TDR2); test: KINOMEscan competition binding; conditions: compound 10.0 µM

SMILES | kinase still bound, per cent of control
CCN1CCN(Cc2ccc(NC(=O)c3ccc(C)c(/C=C/c4cnc(Nc5cc(N6CCNCC6)nc(C)n5)cn4)c3)cc2C(F)(F)F)CC1 | 57%
CCOc1cc(N2CCC(N3CCCCC3)CC2)ccc1Nc1nc(Nc2ccccc2S(=O)(=O)C(C)C)c2cn[nH]c2n1 | 100%
CCN1CCN(Cc2ccc(NC(=O)c3ccc(C)c(Oc4ccnc5[nH]ccc45)c3)cc2C(F)(F)F)CC1 | 3%

biological target: PIK3CB (human) (UniProt P42338); test: KINOMEscan competition binding; conditions: compound 10.0 µM
Sequence (P42338 whole entry, looked up): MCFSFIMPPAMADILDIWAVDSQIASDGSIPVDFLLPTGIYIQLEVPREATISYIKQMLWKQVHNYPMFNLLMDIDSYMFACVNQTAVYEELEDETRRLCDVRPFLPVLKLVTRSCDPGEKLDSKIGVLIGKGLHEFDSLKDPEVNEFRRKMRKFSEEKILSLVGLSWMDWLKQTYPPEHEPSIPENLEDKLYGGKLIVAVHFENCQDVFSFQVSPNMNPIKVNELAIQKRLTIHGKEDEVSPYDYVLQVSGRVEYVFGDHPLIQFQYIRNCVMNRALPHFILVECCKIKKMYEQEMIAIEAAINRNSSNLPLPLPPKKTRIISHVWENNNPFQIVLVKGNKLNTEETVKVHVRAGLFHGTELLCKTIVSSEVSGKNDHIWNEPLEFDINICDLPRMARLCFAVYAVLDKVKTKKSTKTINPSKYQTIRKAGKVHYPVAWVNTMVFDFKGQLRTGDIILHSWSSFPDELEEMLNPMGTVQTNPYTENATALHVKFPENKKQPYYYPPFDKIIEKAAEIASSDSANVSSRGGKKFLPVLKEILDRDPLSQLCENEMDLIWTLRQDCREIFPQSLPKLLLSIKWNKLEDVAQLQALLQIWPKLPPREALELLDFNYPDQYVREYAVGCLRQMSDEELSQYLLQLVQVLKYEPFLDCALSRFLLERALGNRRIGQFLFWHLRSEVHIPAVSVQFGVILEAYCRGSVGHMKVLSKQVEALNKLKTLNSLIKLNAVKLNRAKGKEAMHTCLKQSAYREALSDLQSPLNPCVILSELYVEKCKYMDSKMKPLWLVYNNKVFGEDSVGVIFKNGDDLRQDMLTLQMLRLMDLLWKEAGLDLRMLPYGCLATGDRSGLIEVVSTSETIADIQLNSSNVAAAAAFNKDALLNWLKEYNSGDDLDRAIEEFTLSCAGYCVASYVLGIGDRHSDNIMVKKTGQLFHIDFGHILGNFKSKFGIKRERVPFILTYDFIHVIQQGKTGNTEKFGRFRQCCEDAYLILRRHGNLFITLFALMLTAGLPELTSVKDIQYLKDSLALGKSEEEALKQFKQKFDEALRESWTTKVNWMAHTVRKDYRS

SMILES | kinase still bound, per cent of control
CCN1CCN(Cc2ccc(NC(=O)c3ccc(C)c(/C=C/c4cnc(Nc5cc(N6CCNCC6)nc(C)n5)cn4)c3)cc2C(F)(F)F)CC1 | 85%
COc1cc(N2CCC(N3CCN(C)CC3)CC2)ccc1Nc1ncc(Cl)c(Nc2ccccc2S(=O)(=O)C(C)C)n1 | 40%
CCOc1cc(N2CCC(N3CCCCC3)CC2)ccc1Nc1nc(Nc2ccccc2S(=O)(=O)C(C)C)c2cn[nH]c2n1 | 17%

biological target: PIM2 (human) (UniProt Q9P1W9); test: KINOMEscan competition binding; conditions: compound 10.0 µM
Sequence (Q9P1W9 whole entry, looked up): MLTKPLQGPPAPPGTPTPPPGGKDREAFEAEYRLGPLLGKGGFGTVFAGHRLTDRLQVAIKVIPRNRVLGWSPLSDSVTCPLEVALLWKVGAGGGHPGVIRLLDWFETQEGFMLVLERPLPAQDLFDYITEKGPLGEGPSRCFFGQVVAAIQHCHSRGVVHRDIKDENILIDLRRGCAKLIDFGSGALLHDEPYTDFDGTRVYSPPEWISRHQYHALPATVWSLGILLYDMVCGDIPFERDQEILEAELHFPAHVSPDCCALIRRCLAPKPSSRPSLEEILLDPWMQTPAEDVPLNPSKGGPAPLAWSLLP

SMILES | kinase still bound, per cent of control
CCN1CCN(Cc2ccc(NC(=O)c3ccc(C)c(/C=C/c4cnc(Nc5cc(N6CCNCC6)nc(C)n5)cn4)c3)cc2C(F)(F)F)CC1 | 50%
COc1cc(N2CCC(N3CCN(C)CC3)CC2)ccc1Nc1ncc(Cl)c(Nc2ccccc2S(=O)(=O)C(C)C)n1 | 40%
CCOc1cc(N2CCC(N3CCCCC3)CC2)ccc1Nc1nc(Nc2ccccc2S(=O)(=O)C(C)C)c2cn[nH]c2n1 | 100%

biological target: PAK1 (human) (UniProt Q13153); test: KINOMEscan competition binding; conditions: compound 10.0 µM

SMILES | kinase still bound, per cent of control
CCN1CCN(Cc2ccc(NC(=O)c3ccc(C)c(/C=C/c4cnc(Nc5cc(N6CCNCC6)nc(C)n5)cn4)c3)cc2C(F)(F)F)CC1 | 87%
COc1cc(N2CCC(N3CCN(C)CC3)CC2)ccc1Nc1ncc(Cl)c(Nc2ccccc2S(=O)(=O)C(C)C)n1 | 4.8%
CCOc1cc(N2CCC(N3CCCCC3)CC2)ccc1Nc1nc(Nc2ccccc2S(=O)(=O)C(C)C)c2cn[nH]c2n1 | 90%

biological target: ADCK3 (human) (UniProt Q8NI60); test: KINOMEscan competition binding; conditions: compound 10.0 µM
Sequence (Q8NI60 whole entry, looked up): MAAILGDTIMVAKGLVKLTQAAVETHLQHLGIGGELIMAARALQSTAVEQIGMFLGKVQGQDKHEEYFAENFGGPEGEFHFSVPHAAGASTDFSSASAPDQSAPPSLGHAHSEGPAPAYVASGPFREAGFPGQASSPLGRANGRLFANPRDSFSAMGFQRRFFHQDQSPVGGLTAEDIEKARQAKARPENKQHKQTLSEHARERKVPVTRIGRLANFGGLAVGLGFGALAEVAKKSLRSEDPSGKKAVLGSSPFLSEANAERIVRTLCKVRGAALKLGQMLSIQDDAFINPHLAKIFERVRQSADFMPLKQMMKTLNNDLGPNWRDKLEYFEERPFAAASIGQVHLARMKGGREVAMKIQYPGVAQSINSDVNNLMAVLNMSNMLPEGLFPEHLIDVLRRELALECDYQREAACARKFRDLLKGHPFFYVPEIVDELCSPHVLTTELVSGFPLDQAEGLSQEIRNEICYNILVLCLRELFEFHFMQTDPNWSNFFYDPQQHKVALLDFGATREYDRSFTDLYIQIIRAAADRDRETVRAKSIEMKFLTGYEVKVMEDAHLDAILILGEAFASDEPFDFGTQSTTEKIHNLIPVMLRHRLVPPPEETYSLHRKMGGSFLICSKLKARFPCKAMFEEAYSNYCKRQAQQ

SMILES | kinase still bound, per cent of control
CCN1CCN(Cc2ccc(NC(=O)c3ccc(C)c(/C=C/c4cnc(Nc5cc(N6CCNCC6)nc(C)n5)cn4)c3)cc2C(F)(F)F)CC1 | 100%
COc1cc(N2CCC(N3CCN(C)CC3)CC2)ccc1Nc1ncc(Cl)c(Nc2ccccc2S(=O)(=O)C(C)C)n1 | 9.2%
CCOc1cc(N2CCC(N3CCCCC3)CC2)ccc1Nc1nc(Nc2ccccc2S(=O)(=O)C(C)C)c2cn[nH]c2n1 | 84%

biological target: AURKA (human) (UniProt O14965); test: KINOMEscan competition binding; conditions: compound 10.0 µM
Sequence (O14965 whole entry, looked up): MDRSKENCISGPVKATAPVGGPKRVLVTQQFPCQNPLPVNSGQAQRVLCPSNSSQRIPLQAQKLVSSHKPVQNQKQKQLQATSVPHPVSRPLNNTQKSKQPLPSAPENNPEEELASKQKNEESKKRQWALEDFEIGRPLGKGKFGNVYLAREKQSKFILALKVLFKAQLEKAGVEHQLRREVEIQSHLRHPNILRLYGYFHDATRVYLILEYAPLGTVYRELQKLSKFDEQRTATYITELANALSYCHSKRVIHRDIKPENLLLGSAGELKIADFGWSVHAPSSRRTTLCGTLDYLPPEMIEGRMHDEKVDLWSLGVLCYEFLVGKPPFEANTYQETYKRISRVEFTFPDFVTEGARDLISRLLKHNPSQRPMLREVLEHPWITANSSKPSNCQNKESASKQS

SMILES | kinase still bound, per cent of control
CCN1CCN(Cc2ccc(NC(=O)c3ccc(C)c(/C=C/c4cnc(Nc5cc(N6CCNCC6)nc(C)n5)cn4)c3)cc2C(F)(F)F)CC1 | 78%
COc1cc(N2CCC(N3CCN(C)CC3)CC2)ccc1Nc1ncc(Cl)c(Nc2ccccc2S(=O)(=O)C(C)C)n1 | 0%
CCOc1cc(N2CCC(N3CCCCC3)CC2)ccc1Nc1nc(Nc2ccccc2S(=O)(=O)C(C)C)c2cn[nH]c2n1 | 100%

biological target: HCK (human) (UniProt P08631); test: KINOMEscan competition binding; conditions: compound 10.0 µM
Sequence (P08631 whole entry, looked up): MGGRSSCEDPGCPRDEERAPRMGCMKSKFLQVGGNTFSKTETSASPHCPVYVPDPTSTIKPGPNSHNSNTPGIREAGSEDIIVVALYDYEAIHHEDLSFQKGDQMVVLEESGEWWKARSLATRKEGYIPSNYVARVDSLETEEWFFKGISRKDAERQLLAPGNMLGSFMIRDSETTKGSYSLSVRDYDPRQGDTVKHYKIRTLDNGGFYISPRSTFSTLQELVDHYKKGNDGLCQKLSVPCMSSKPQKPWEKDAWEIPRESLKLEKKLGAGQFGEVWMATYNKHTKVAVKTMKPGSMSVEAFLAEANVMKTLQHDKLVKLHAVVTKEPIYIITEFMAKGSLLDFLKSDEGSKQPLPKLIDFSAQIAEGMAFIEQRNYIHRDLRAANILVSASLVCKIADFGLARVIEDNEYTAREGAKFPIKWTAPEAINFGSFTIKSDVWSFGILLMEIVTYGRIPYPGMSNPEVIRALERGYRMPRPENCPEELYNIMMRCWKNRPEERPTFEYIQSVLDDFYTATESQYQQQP

SMILES | kinase still bound, per cent of control
CCN1CCN(Cc2ccc(NC(=O)c3ccc(C)c(/C=C/c4cnc(Nc5cc(N6CCNCC6)nc(C)n5)cn4)c3)cc2C(F)(F)F)CC1 | 0.4%
COc1cc(N2CCC(N3CCN(C)CC3)CC2)ccc1Nc1ncc(Cl)c(Nc2ccccc2S(=O)(=O)C(C)C)n1 | 0.35%
CCOc1cc(N2CCC(N3CCCCC3)CC2)ccc1Nc1nc(Nc2ccccc2S(=O)(=O)C(C)C)c2cn[nH]c2n1 | 100%
CCN1CCN(Cc2ccc(NC(=O)c3ccc(C)c(Oc4ccnc5[nH]ccc45)c3)cc2C(F)(F)F)CC1 | 0.4%

biological target: FGFR1 (human) (UniProt P11362); test: KINOMEscan competition binding; conditions: compound 10.0 µM
Sequence (P11362 whole entry, looked up): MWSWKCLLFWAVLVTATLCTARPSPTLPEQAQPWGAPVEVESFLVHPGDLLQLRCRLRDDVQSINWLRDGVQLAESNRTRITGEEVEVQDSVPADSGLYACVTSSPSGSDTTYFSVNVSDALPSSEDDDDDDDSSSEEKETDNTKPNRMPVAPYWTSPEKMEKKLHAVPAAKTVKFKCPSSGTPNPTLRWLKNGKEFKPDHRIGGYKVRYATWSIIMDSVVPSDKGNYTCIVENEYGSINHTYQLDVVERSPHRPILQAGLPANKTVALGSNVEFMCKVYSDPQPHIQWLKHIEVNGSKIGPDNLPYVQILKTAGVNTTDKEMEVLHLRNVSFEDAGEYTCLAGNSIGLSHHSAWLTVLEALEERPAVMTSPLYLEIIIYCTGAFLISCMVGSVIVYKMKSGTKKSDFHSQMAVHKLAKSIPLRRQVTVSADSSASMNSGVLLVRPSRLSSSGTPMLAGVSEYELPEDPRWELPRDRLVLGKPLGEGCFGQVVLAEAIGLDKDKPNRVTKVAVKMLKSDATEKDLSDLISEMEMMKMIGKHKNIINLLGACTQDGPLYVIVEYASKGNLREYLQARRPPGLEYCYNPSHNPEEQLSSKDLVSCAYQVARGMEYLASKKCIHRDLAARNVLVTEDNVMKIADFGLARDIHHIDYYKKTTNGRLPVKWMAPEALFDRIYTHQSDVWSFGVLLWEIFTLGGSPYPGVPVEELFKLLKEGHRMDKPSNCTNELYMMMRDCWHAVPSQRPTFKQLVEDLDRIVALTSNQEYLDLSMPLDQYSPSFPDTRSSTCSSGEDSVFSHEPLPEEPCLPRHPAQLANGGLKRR

SMILES | kinase still bound, per cent of control
CCN1CCN(Cc2ccc(NC(=O)c3ccc(C)c(/C=C/c4cnc(Nc5cc(N6CCNCC6)nc(C)n5)cn4)c3)cc2C(F)(F)F)CC1 | 1.6%
COc1cc(N2CCC(N3CCN(C)CC3)CC2)ccc1Nc1ncc(Cl)c(Nc2ccccc2S(=O)(=O)C(C)C)n1 | 0%
CCOc1cc(N2CCC(N3CCCCC3)CC2)ccc1Nc1nc(Nc2ccccc2S(=O)(=O)C(C)C)c2cn[nH]c2n1 | 100%
CCN1CCN(Cc2ccc(NC(=O)c3ccc(C)c(Oc4ccnc5[nH]ccc45)c3)cc2C(F)(F)F)CC1 | 1.7%

biological target: CaMK1 (human) (UniProt Q14012); test: KINOMEscan competition binding; conditions: compound 10.0 µM

SMILES | kinase still bound, per cent of control
CCN1CCN(Cc2ccc(NC(=O)c3ccc(C)c(/C=C/c4cnc(Nc5cc(N6CCNCC6)nc(C)n5)cn4)c3)cc2C(F)(F)F)CC1 | 90%
